Columns and labels:
[1] = biological target: T1, APE1 (Homo sapiens, UniProt P27695); experiment: Fluorescence polarization (FP) displacement assay of APE1 binding to AP-DNA probe; settings: read-out: FP IC50;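 note: TAMRA 5′-labeled duplex DNA with THF abasic site (5 nM) and APE1 (20 nM), Mg2+-free buffer, 15 min at room temperature, inhibition seen as lowered polarization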
T1 construct: made in house

[2] = biological target: T1, APE1; experiment: Fluorogenic kinetic qHTS APE1 incision assay (primary screen and retest of cherrypicked samples); format: biochemical;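 note: purified APE1 cleaving a fluorophore/dark-quencher labelled 17-mer duplex DNA bearing a tetrahydrofuran AP site, fluorescence rise followed kinetically over the first 2 min, inhibition normalized to controls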
[3] = biological target: T2, E. coli Endo IV (Escherichia coli, UniProt P0A6C1); experiment: E. coli Endo IV profiling counterscreen; format: biochemical; settings: read-out: EndoIV IC50;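 note: selectivity counterscreen of candidate APE1 inhibitors against the bacterial endonuclease Endo IV, run in the same assay format as the primary APE1 high-throughput screen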
T2 construct: made in house
From the text: In order to screen out nonselective compounds, such as non-specific DNA binders and inhibitors of related enzymes, we used a miniaturized ThO DNA displacement assay and a counterscreen against the bacterial endonuclease E. coli Endo IV, respectively, following the previously published protocols [21].
To probe the selectivity of the candidate APE1 inhibitors, we tested them against E. coli EndoIV [36], employing the same assay as used in the HTS.

[4] = biological target: double-stranded 17-mer DNA fragment; experiment: ThO (Thiazole Orange) DNA displacement assay; format: binding; settings: read-out: ThO-DNA binding IC50;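 note: miniaturized displacement of the intercalating dye from unlabeled duplex DNA, used to flag nonspecific DNA binders, chiefly intercalators, groove binders may be missed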
[5] = biological target: T1, APE1; experiment: Gel-based radiotracer (32P) APE1 incision assay; format: biochemical; parameters: concentration or dose not given beside the values; settings: percent incision shown; entries 1-112;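 note: APE1 incision reactions ran 5 min at 37 °C, with cleaved product and intact substrate resolved electrophoretically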
[6] = initial quantitative high-throughput screen, read-out: APE1 qHTS IC50
[7] = retest of cherrypicked sample, read-out: APE1 Retest IC50

T1 sequence (P27695 whole entry): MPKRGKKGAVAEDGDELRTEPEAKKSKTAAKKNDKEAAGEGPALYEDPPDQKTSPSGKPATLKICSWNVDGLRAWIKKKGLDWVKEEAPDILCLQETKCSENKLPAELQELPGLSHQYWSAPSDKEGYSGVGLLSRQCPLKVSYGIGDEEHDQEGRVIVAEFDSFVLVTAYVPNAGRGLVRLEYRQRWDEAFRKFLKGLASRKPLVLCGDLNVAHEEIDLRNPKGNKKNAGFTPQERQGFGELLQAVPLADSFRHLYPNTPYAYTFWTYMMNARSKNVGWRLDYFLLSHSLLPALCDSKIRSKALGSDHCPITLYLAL

Compound	IC50 [1] [µM]	IC50 [2, 6] [µM]	IC50 [2, 7] [µM]	IC50 [3] [µM]	IC50 [4] [µM]	Radiotracer Assay (%Activity) [5] [%]
CC(C)C(C(=O)O)N1C(=O)/C(=C/C=C/c2ccco2)SC1=S (stereo not shown) [MLS000551672]	11.2	1.6	2.5	> 57	> 57	19
Cc1cccc(C)c1NC(=O)CSc1nnc(-c2ccco2)c(-c2ccco2)n1 [MLS000556463]	> 57	15.6	3.6	> 57	> 57	43
NC(=O)Cn1c(=O)n(Cc2ccco2)c(=O)c2c3c(sc21)CCCCC3 [MLS000559128]	7.1	31.6	10	> 57	> 57	21
O=C(OCC1O[C@@H](OC(=O)c2cc(O)c(O)c(O)c2)[C@@H](OC(=O)c2cc(O)c(O)c(O)c2)[C@@H](OC(=O)c2cc(O)c(O)c(O)c2)[C@@H]1OC(=O)c1cc(O)c(O)c(O)c1)c1cc(O)c(O)c(O)c1 (stereo partly shown) [MLS000574902]	> 57	0.01	0.006	> 57	4	8
O=C(N/N=C/c1cccn1-c1cccc(C(=O)O)c1)Nc1ccccc1 [MLS000588622]	> 57	5	3.5	> 57	> 57	32
COc1ccc2c(c1)c(=O)oc1cc(OCC(=O)NC3CCCCC3)ccc12 [MLS000594161]	> 57	11.2	5.6	> 57	> 57	38
N#C/C(=C/c1cccn1-c1cccc(C(=O)O)c1)c1ccc(Cl)cc1 [MLS000621431]	> 57	11.2	5	> 57	> 57	44
Cc1cccc(N2NC(=O)/C(=C/c3ccc(-c4ccc(Cl)c(C(=O)O)c4)o3)C2=O)c1 [MLS000621664]	> 57	17.8	12.6	> 57	> 57	32
O=C(O)c1ccc(-n2cccc2/C=C2/NC(=O)N(c3cccc(Cl)c3)C2=O)cc1 [MLS000621695]	11.2	2.8	1.6	> 57	15.8	6
Cc1cc(/C=C2\C(=O)NC(=O)N(Cc3ccccc3Cl)C2=O)c(C)n1-c1ccc(C(=O)O)cc1 [MLS000627094]	15.8	11.2	12.6	> 57	> 57	2
O=C(CSc1nc(-c2ccc(F)cc2)nc2c1Cc1ccccc1O2)Nc1ccc(C(=O)O)cc1 [MLS000673045]	> 57	12.6	4.5	14.1	3.2	36
CC(=O)NC1=NC(=O)/C(=C/c2cc(C)n(-c3cccc(C(=O)O)c3)c2C)S1 [MLS000673948]	> 57	3.5	4.4	> 57	> 57	30
Cc1cc(C=O)c(C)n1-c1ccc(Cl)c(C(=O)O)c1 [MLS000676588]	> 57	5.6	8.9	> 57	> 57	31
O=C1NN(c2ccccc2)C(=O)/C1=C/c1ccc(-c2ccc(Cl)c(C(=O)O)c2)o1 [MLS000682903]	15.8	12.6	15.6	> 57	> 57	37
O=C(CCc1n[nH]c(=O)[nH]c1=O)N/N=C/c1ccco1 [MLS000685551]	> 57	19.9	12.6	> 57	> 57	33
COc1cc(/C=N/Nc2ccc(C(=O)O)cc2)ccc1O [MLS000685676]	> 57	14.1	14.1	> 57	> 57	50
O=c1nc(N/N=C/c2ccco2)cn[nH]1 [MLS000685729]	> 57	–	5	> 57	> 57	28
Cc1ccc(NC(=O)CN2C(=O)N/C(=C\c3cccn3-c3cccc(C(=O)O)c3)C2=O)cc1 [MLS000686355]	14.1	3.5	1.4	> 57	> 57	15
O=C(O)C[C@@H]1C(=O)O[C@@H]2C(COC(=O)c3cc(O)c(O)c(O)c3)O[C@@H](OC(=O)c3cc(O)c(O)c(O)c3)[C@@H](OC(=O)c3cc(O)c(O)c4c3[C@H]1[C@H](O)C(=O)O4)[C@H]2OC(=O)c1cc(O)c(O)c(O)c1 (stereo partly shown) [MLS000697665]	14.1	0.01	0.01	> 57	0.4	29

Compound	IC50 [1] [µM]	IC50 [2, 6] [µM]	IC50 [2, 7] [µM]	IC50 [3] [µM]	IC50 [4] [µM]	Radiotracer Assay (%Activity) [5] [%]
O=C(/C=C/c1ccc(O)c(O)c1)O[C@H](Cc1ccc(O)c(O)c1)C(=O)O [MLS000697677]	> 57	0.1	0.6	> 57	> 57	38
O=C(c1cc(C(=O)c2ccco2)cc(C(=O)c2ccco2)c1)c1ccco1 [MLS000699310]	> 57	31.6	5	> 57	> 57	6
Cc1cc(C)c2nc(-c3ccco3)cc(C(=O)O)c2c1 [MLS000703171]	> 57	7.1	12.6	> 57	> 57	23
Cc1ccccc1N=C1NC(=O)/C(=C/c2cccn2-c2cccc(C(=O)O)c2)S1 [MLS000704580]	> 57	17.8	11.2	> 57	> 57	7
Cn1cnnc1SCC(=O)Nc1nc(-c2ccccc2)cs1 [MLS000711532]	> 57	28.2	10	> 57	> 57	32
O=C(O)c1ccc(N2C(=O)c3cccc4c(C(=O)O)ccc(c34)C2=O)cc1 [MLS000713642]	15.8	12.6	7.9	> 57	> 57	28
Nc1ccc2c(c1Cl)C(=O)c1ccc(N)c(Cl)c1C2=O [MLS000737360]	7.9	8.9	6.3	> 57	6.3	17
Nc1ccc(Nc2ccccc2)c(S(=O)(=O)O)c1 [MLS000737782]	> 57	14.1	15.8	> 57	> 57	9
O=C1CCCC(O)=C1N=Nc1ccc(C(=O)O)cc1 [MLS000759943]	> 57	8.9	10	> 57	> 57	47
CCOC(=O)c1cc(-c2ccc(N3CCOCC3)cc2)nn1-c1ccccc1C(=O)O [MLS000759946]	15.8	2.5	14.1	> 57	> 57	27
O=C1CCCC(O)=C1N=Nc1cccc(C(=O)O)c1 [MLS000759952]	> 57	10	12.6	> 57	> 57	10
COc1ccc(N2CCN(C(=O)Cc3ccc(S(=O)(=O)N4CCOCC4)s3)CC2)cc1 [MLS000760918]	> 57	14.1	–	> 57	> 57	45
O=C(NN1C(=O)/C(=C/C=C/c2ccco2)SC1=S)c1ccncc1 [MLS000762704]	> 57	4.5	4.5	> 57	> 57	36
O=C(/C=C/c1ccco1)NCc1ccco1 [MLS000768482]	> 57	22.4	4.5	> 57	> 57	21
O=C(O)c1cccc(-c2ccc(/C=c3/sc4nc5ccccc5n4c3=O)o2)c1 [MLS000777053]	7.9	10	5	> 57	6.3	23
O=C(O)c1ccc(-n2cccc2/C=C2/NC(=O)N(c3ccccc3)C2=O)cc1 [MLS000778414]	12.6	2.5	4	> 57	> 57	37
O=C(O)CCCN1C(=O)/C(=C/C=C/c2ccco2)SC1=S [MLS000778631]	> 57	35.5	5	> 57	> 57	41
O=C(CCCN1C(=O)/C(=C/c2ccco2)SC1=S)Nc1ccccc1C(=O)O [MLS000778775]	5	19.9	12.6	> 57	> 57	3

Reference: article PMC3479139, “Diverse Small Molecule Inhibitors of Human Apurinic/Apyrimidinic Endonuclease APE1 Identified from a Screen of a Large Public Collection” (PLoS ONE, 2012)
